Test results reported in PubChem BioAssay (NCI).
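In this assay, cells in 96-well plates receive the compound at five concentrations for 48 hours. Endpoints are linearly interpolated between the surrounding concentrations. TGI: total growth inhibition.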

How the values were obtained:
Assay in all cases: inhibition of tumour cell growth, NCI panel, 48 h
SF-539 CNS = system: SF-539 CNS
CCRF-CEM leukemia = system: CCRF-CEM leukemia
EKVX NSCLC = system: EKVX NSCLC
COLO 205 colon = system: COLO 205 colon
MALME-3M melanoma = system: MALME-3M melanoma
HT29 colon = system: HT29 colon
MCF7 breast = system: MCF7 breast
NCI-H522 lung = system: NCI-H522 lung
HL-60(TB) leukemia = system: HL-60(TB) leukemia
MDA-N = system: MDA-N
PC-3 prostate = system: PC-3 prostate
SF-295 CNS = system: SF-295 CNS
NCI-H226 lung = system: NCI-H226 lung
IGROV1 ovarian = system: IGROV1 ovarian
MDA-MB-231 breast = system: MDA-MB-231 breast
LOX IMVI melanoma = system: LOX IMVI melanoma
HCT-15 colon = system: HCT-15 colon
A549 NSCLC = system: A549 NSCLC
M14 melanoma = system: M14 melanoma
BT-549 breast = system: BT-549 breast
HOP-62 NSCLC = system: HOP-62 NSCLC
KM12 colon = system: KM12 colon
SN12C renal = system: SN12C renal
ACHN renal = system: ACHN renal
A498 renal = system: A498 renal
UO-31 renal = system: UO-31 renal
SW-620 colon = system: SW-620 colon
DU-145 prostate = system: DU-145 prostate
NCI/ADR-RES ovarian = system: NCI/ADR-RES ovarian
SK-MEL-2 melanoma = system: SK-MEL-2 melanoma
SNB-75 CNS = system: SNB-75 CNS
U251 CNS = system: U251 CNS
SF-268 CNS = system: SF-268 CNS
NCI-H460 lung = system: NCI-H460 lung
MOLT-4 leukemia = system: MOLT-4 leukemia
OVCAR-5 ovarian = system: OVCAR-5 ovarian
HOP-92 NSCLC = system: HOP-92 NSCLC
HCT-116 colon = system: HCT-116 colon
RPMI-8226 leukemia = system: RPMI-8226 leukemia
SNB-19 CNS = system: SNB-19 CNS
SK-MEL-5 melanoma = system: SK-MEL-5 melanoma
SK-MEL-28 melanoma = system: SK-MEL-28 melanoma
TK-10 renal = system: TK-10 renal
CAKI-1 renal = system: CAKI-1 renal
OVCAR-4 ovarian = system: OVCAR-4 ovarian
T-47D breast = system: T-47D breast
HCC-2998 colon = system: HCC-2998 colon
HS 578T breast = system: HS 578T breast
NCI-H23 lung = system: NCI-H23 lung
RXF 393 renal = system: RXF 393 renal
SK-OV-3 ovarian = system: SK-OV-3 ovarian
UACC-257 melanoma = system: UACC-257 melanoma
OVCAR-3 ovarian = system: OVCAR-3 ovarian
SR leukemia = system: SR leukemia
UACC-62 melanoma = system: UACC-62 melanoma
OVCAR-8 ovarian = system: OVCAR-8 ovarian
MDA-MB-435 = system: MDA-MB-435
786-0 renal = system: 786-0 renal
K-562 leukemia = system: K-562 leukemia
SNB-78 CNS = system: SNB-78 CNS
DMS 114 small cell lung = system: DMS 114 small cell lung
DLD-1 colon = system: DLD-1 colon
DMS 273 small cell lung = system: DMS 273 small cell lung
M19-MEL melanoma = system: M19-MEL melanoma
HOP-18 NSCLC = system: HOP-18 NSCLC
KM20L2 colon = system: KM20L2 colon
LXFL 529 NSCLC = system: LXFL 529 NSCLC

## CC(=O)O[C@H]1CC[C@@]2(C)C(=CC[C@H]3[C@@H]4C[C@H](N5CCCC5)[C@H](OC(C)=O)[C@@]4(C)CC[C@@H]32)C1
SF-539 CNS
  TGI: > 65.3 µM
CCRF-CEM leukemia
  TGI: > 100 µM
EKVX NSCLC
  TGI: > 100 µM
COLO 205 colon
  TGI: > 100 µM
MALME-3M melanoma
  TGI: > 74.3 µM
HT29 colon
  TGI: 69.4 µM
MCF7 breast
  TGI: > 100 µM
NCI-H522 lung
  TGI: > 100 µM
HL-60(TB) leukemia
  TGI: > 80.9 µM
MDA-N
  TGI: > 84.4 µM
PC-3 prostate
  TGI: > 100 µM
SF-295 CNS
  TGI: > 100 µM
NCI-H226 lung
  TGI: > 100 µM
IGROV1 ovarian
  TGI: > 100 µM
MDA-MB-231 breast
  TGI: > 100 µM
LOX IMVI melanoma
  TGI: > 100 µM
HCT-15 colon
  TGI: > 100 µM
A549 NSCLC
  TGI: > 100 µM
M14 melanoma
  TGI: 33.9 µM
BT-549 breast
  TGI: > 100 µM
HOP-62 NSCLC
  TGI: > 100 µM
KM12 colon
  TGI: > 100 µM
SN12C renal
  TGI: > 100 µM
ACHN renal
  TGI: > 100 µM
A498 renal
  TGI: > 100 µM
UO-31 renal
  TGI: > 100 µM
SW-620 colon
  TGI: > 100 µM
DU-145 prostate
  TGI: > 100 µM
NCI/ADR-RES ovarian
  TGI: > 100 µM
SK-MEL-2 melanoma
  TGI: > 100 µM
SNB-75 CNS
  TGI: > 100 µM
U251 CNS
  TGI: > 100 µM
SF-268 CNS
  TGI: > 100 µM
NCI-H460 lung
  TGI: > 100 µM
MOLT-4 leukemia
  TGI: > 100 µM
OVCAR-5 ovarian
  TGI: > 100 µM
HOP-92 NSCLC
  TGI: > 100 µM
HCT-116 colon
  TGI: > 100 µM
RPMI-8226 leukemia
  TGI: > 100 µM
SNB-19 CNS
  TGI: > 100 µM
SK-MEL-5 melanoma
  TGI: 54.8 µM
SK-MEL-28 melanoma
  TGI: > 100 µM
TK-10 renal
  TGI: > 100 µM
CAKI-1 renal
  TGI: > 100 µM
OVCAR-4 ovarian
  TGI: > 100 µM
T-47D breast
  TGI: > 100 µM
HCC-2998 colon
  TGI: > 100 µM
HS 578T breast
  TGI: > 100 µM
NCI-H23 lung
  TGI: > 100 µM
RXF 393 renal
  TGI: > 100 µM
SK-OV-3 ovarian
  TGI: > 100 µM
UACC-257 melanoma
  TGI: > 68.2 µM
OVCAR-3 ovarian
  TGI: > 100 µM
SR leukemia
  TGI: > 100 µM
UACC-62 melanoma
  TGI: > 100 µM
OVCAR-8 ovarian
  TGI: > 100 µM
MDA-MB-435
  TGI: 82.4 µM
786-0 renal
  TGI: > 100 µM
K-562 leukemia
  TGI: > 67.4 µM

## O=C1c2ccccc2C(=O)N1Cc1ccccc1-c1c2nc(c(-c3ccccc3CN3C(=O)c4ccccc4C3=O)c3ccc([nH]3)c(-c3ccccc3CN3C(=O)c4ccccc4C3=O)c3nc(c(-c4ccccc4CN4C(=O)c5ccccc5C4=O)c4ccc1[nH]4)C=C3)C=C2
SF-539 CNS
  TGI: > 100 µM
SNB-78 CNS
  TGI: > 100 µM
CCRF-CEM leukemia
  TGI: > 100 µM
COLO 205 colon
  TGI: > 100 µM
MALME-3M melanoma
  TGI: > 100 µM
HT29 colon
  TGI: > 100 µM
NCI-H522 lung
  TGI: > 100 µM
HL-60(TB) leukemia
  TGI: > 100 µM
SF-295 CNS
  TGI: > 100 µM
NCI-H226 lung
  TGI: > 100 µM
IGROV1 ovarian
  TGI: > 100 µM
LOX IMVI melanoma
  TGI: > 100 µM
HCT-15 colon
  TGI: > 100 µM
DMS 114 small cell lung
  TGI: > 100 µM
A549 NSCLC
  TGI: > 100 µM
M14 melanoma
  TGI: > 100 µM
DLD-1 colon
  TGI: > 100 µM
HOP-62 NSCLC
  TGI: > 100 µM
KM12 colon
  TGI: > 100 µM
SN12C renal
  TGI: > 100 µM
DMS 273 small cell lung
  TGI: > 100 µM
ACHN renal
  TGI: > 100 µM
A498 renal
  TGI: > 100 µM
UO-31 renal
  TGI: > 100 µM
SW-620 colon
  TGI: > 100 µM
M19-MEL melanoma
  TGI: > 100 µM
SK-MEL-2 melanoma
  TGI: > 100 µM
HOP-18 NSCLC
  TGI: > 100 µM
SNB-75 CNS
  TGI: > 100 µM
U251 CNS
  TGI: > 100 µM
SF-268 CNS
  TGI: > 100 µM
NCI-H460 lung
  TGI: > 100 µM
MOLT-4 leukemia
  TGI: > 100 µM
OVCAR-5 ovarian
  TGI: > 100 µM
HOP-92 NSCLC
  TGI: > 100 µM
HCT-116 colon
  TGI: > 100 µM
RPMI-8226 leukemia
  TGI: > 100 µM
SK-MEL-5 melanoma
  TGI: > 100 µM
SK-MEL-28 melanoma
  TGI: > 100 µM
KM20L2 colon
  TGI: > 100 µM
TK-10 renal
  TGI: > 100 µM
CAKI-1 renal
  TGI: > 100 µM
OVCAR-4 ovarian
  TGI: > 100 µM
NCI-H23 lung
  TGI: > 100 µM
RXF 393 renal
  TGI: > 100 µM
SK-OV-3 ovarian
  TGI: > 100 µM
UACC-257 melanoma
  TGI: > 100 µM
LXFL 529 NSCLC
  TGI: > 100 µM
OVCAR-3 ovarian
  TGI: > 100 µM
SR leukemia
  TGI: > 100 µM
UACC-62 melanoma
  TGI: > 100 µM
OVCAR-8 ovarian
  TGI: > 100 µM
786-0 renal
  TGI: > 100 µM
K-562 leukemia
  TGI: > 100 µM

## NC1=NS(=O)(=O)Nc2nc(-c3ccc([N+](=O)[O-])cc3)[nH]c21
SF-539 CNS
  TGI: > 100 µM
CCRF-CEM leukemia
  TGI: > 100 µM
COLO 205 colon
  TGI: > 100 µM
MALME-3M melanoma
  TGI: > 100 µM
HT29 colon
  TGI: > 100 µM
NCI-H522 lung
  TGI: > 100 µM
HL-60(TB) leukemia
  TGI: > 100 µM
SF-295 CNS
  TGI: > 100 µM
IGROV1 ovarian
  TGI: > 100 µM
LOX IMVI melanoma
  TGI: > 100 µM
HCT-15 colon
  TGI: > 100 µM
DMS 114 small cell lung
  TGI: > 100 µM
A549 NSCLC
  TGI: > 100 µM
M14 melanoma
  TGI: > 100 µM
DLD-1 colon
  TGI: > 100 µM
HOP-62 NSCLC
  TGI: > 100 µM
KM12 colon
  TGI: > 100 µM
SN12C renal
  TGI: > 100 µM
DMS 273 small cell lung
  TGI: > 100 µM
ACHN renal
  TGI: > 100 µM
UO-31 renal
  TGI: > 100 µM
SW-620 colon
  TGI: > 100 µM
M19-MEL melanoma
  TGI: > 100 µM
SK-MEL-2 melanoma
  TGI: > 100 µM
HOP-18 NSCLC
  TGI: > 100 µM
SNB-75 CNS
  TGI: > 100 µM
U251 CNS
  TGI: > 100 µM
SF-268 CNS
  TGI: > 100 µM
NCI-H460 lung
  TGI: > 100 µM
MOLT-4 leukemia
  TGI: > 100 µM
OVCAR-5 ovarian
  TGI: > 100 µM
HOP-92 NSCLC
  TGI: > 100 µM
HCT-116 colon
  TGI: > 100 µM
RPMI-8226 leukemia
  TGI: > 100 µM
SNB-19 CNS
  TGI: > 100 µM
SK-MEL-5 melanoma
  TGI: > 100 µM
SK-MEL-28 melanoma
  TGI: > 100 µM
TK-10 renal
  TGI: > 100 µM
CAKI-1 renal
  TGI: > 100 µM
OVCAR-4 ovarian
  TGI: > 100 µM
HCC-2998 colon
  TGI: > 100 µM
NCI-H23 lung
  TGI: > 100 µM
RXF 393 renal
  TGI: > 100 µM
SK-OV-3 ovarian
  TGI: > 100 µM
LXFL 529 NSCLC
  TGI: > 100 µM
OVCAR-3 ovarian
  TGI: > 100 µM
SR leukemia
  TGI: > 100 µM
UACC-62 melanoma
  TGI: > 100 µM
OVCAR-8 ovarian
  TGI: > 100 µM
786-0 renal
  TGI: > 100 µM
K-562 leukemia
  TGI: > 100 µM
